The values that follow come from ChEMBL document CHEMBL1201862, “PubChem BioAssay data set” (2004).

Among the test systems are T47D; SR; NCI/ADR-RES; UO-31; NCI-H522; CCRF-CEM; EKVX; BT-549; HCT-15; PC-3; MDA-MB-231; MDA-N; A549; 786-0; NCI-H460; MCF7; COLO 205; SK-MEL-28; SF-539.
What all share (assay): growth of human tumour cells (NCI), 48 h

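Grown in 96-well plates, cells were treated for 48 hours with each compound at five concentrations. Insufficient inhibition: endpoint recorded as highest concentration tested. GI50 = concentration required for 50% inhibition of growth.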 The source made the active and inactive calls. Cut-off read from the data, not from the text of the source: active = GI50 up to about 1.1 µM and inactive = higher. Where only a bound is given, the exact number is not on record here.

Consider `OC(c1ccccc1)(c1ccccc1)c1nccc2ccccc12`, for which the GI50 with T47D is 27.3 µM (inactive); in the assay on SR it was 37.8 µM (inactive); with NCI/ADR-RES it was 34.6 µM (inactive); in the assay on UO-31, 17.8 µM (inactive); in the assay on NCI-H522 it was 16.7 µM (inactive); with CCRF-CEM it was 23.6 µM (inactive). The GI50 is 20.7 µM (inactive) in the assay on EKVX; 14.3 µM (inactive) with BT-549; 37.3 µM in the assay on HCT-15; 22.2 µM (inactive) with PC-3; 37.7 µM (inactive) in the assay on MDA-MB-231; 30.1 µM (inactive) in the assay with MDA-N. In addition, the GI50 with A549 was 36.9 µM (inactive); in the assay on 786-0, 55 µM (inactive); in the assay on NCI-H460 it was 17.3 µM (inactive); in the assay with MCF7, 35.2 µM (inactive); in the assay on COLO 205 it was 28.1 µM (inactive); with SK-MEL-28, 22.6 µM (inactive).

Consider `O=C1c2ccccc2C(=O)c2c(Nc3ccc4c5c(cccc35)C(=O)c3ccccc3-4)cccc21`, for which the GI50 in the assay with T47D, with SR, in the assay on NCI/ADR-RES, with UO-31, with NCI-H522 and with EKVX was > 100 µM (inactive) throughout. The GI50 in the assay with BT-549 was > 100 µM (inactive); with HCT-15 it was over 100 µM; in the assay on PC-3, > 100 µM (inactive); in the assay on MDA-MB-231, > 100 µM (inactive); with MDA-N, > 100 µM (inactive); with A549, > 100 µM (inactive). In addition, the GI50 in the assay with 786-0 and with NCI-H460 was > 100 µM (inactive) throughout.

With `COC(C)C(O)(C(=O)OCC1=CCN2CCC(O)C12)C(C)(C)O` (centres undefined), the GI50 in the assay with T47D, in the assay with NCI/ADR-RES, in the assay on SF-539, in the assay on UO-31, in the assay on NCI-H522 and with CCRF-CEM was > 100 µM (inactive) in each case. Moreover, the GI50 in the assay with EKVX is > 100 µM (inactive); with BT-549, > 100 µM (inactive); in the assay on HCT-15, over 100 µM; in the assay with PC-3, > 100 µM (inactive); in the assay on MDA-MB-231, > 100 µM (inactive); with MDA-N, > 100 µM (inactive). Besides, the GI50 in the assay with A549, in the assay on 786-0, with NCI-H460, in the assay with MCF7, in the assay on COLO 205 and in the assay with SK-MEL-28 was > 100 µM (inactive) in each case.

Regarding `O=C1c2c(Br)sc(Br)c2C(NC(=O)C(F)(F)F)C1O` (centres undefined), the GI50 in the assay on T47D is 24.4 µM (inactive); with NCI/ADR-RES, 29.1 µM (inactive); in the assay on SF-539 it was 15.7 µM (inactive); in the assay on UO-31 it was 22.4 µM (inactive); with NCI-H522, 13.3 µM (inactive); in the assay on CCRF-CEM, 26.3 µM (inactive). In addition, the GI50 with EKVX is 19.5 µM (inactive); in the assay on BT-549, 19.4 µM (inactive); in the assay with HCT-15 it was 16.7 µM; with PC-3, 26.1 µM (inactive); in the assay on MDA-MB-231, 19.2 µM (inactive); in the assay on MDA-N it was 19.1 µM (inactive). The GI50 in the assay with A549 is 25.3 µM (inactive); in the assay on 786-0, 19.3 µM (inactive); in the assay with NCI-H460, 20.4 µM (inactive); with MCF7 it was 22.8 µM (inactive); in the assay on COLO 205, 16.8 µM (inactive); in the assay on SK-MEL-28, 21.8 µM (inactive).

`CCOC(=O)c1c(-c2ccccc2)c(OC)cn1C`: the GI50 with T47D, in the assay on NCI/ADR-RES, in the assay on SF-539, in the assay with NCI-H522, in the assay with CCRF-CEM and in the assay on EKVX was > 10 µM (inactive) throughout. The GI50 in the assay with BT-549 is > 10 µM (inactive); with HCT-15 it was over 10 µM; with PC-3 it was > 10 µM (inactive); with MDA-MB-231, > 10 µM (inactive); in the assay with MDA-N, > 10 µM (inactive); in the assay with A549, > 10 µM (inactive). Further, the GI50 in the assay on 786-0, in the assay on NCI-H460, in the assay with MCF7, with COLO 205 and in the assay on SK-MEL-28 was > 10 µM (inactive) in each case.

As for `Cn1c(-c2cccs2)cc(-c2cccs2)c1-c1ccsc1`, the GI50 in the assay with T47D is > 100 µM (inactive); in the assay on SR it was 48.2 µM (inactive); in the assay on NCI/ADR-RES it was > 100 µM (inactive); in the assay on SF-539, > 100 µM (inactive); in the assay with UO-31, > 100 µM (inactive); in the assay on CCRF-CEM, > 100 µM (inactive). In addition, the GI50 with EKVX is > 100 µM (inactive); with BT-549 it was > 100 µM (inactive); with HCT-15, 32.9 µM; in the assay on PC-3 it was > 100 µM (inactive); in the assay with MDA-MB-231, > 100 µM (inactive); in the assay with MDA-N, > 100 µM (inactive). Besides, the GI50 is 70.5 µM (inactive) in the assay with A549; > 100 µM (inactive) in the assay on 786-0; > 100 µM (inactive) in the assay with NCI-H460; 2.03 µM (inactive) with MCF7; > 100 µM (inactive) in the assay on COLO 205; > 100 µM (inactive) in the assay with SK-MEL-28.

For `CC(C)(C)OC(=O)NC(CSCc1ccc(C(=O)c2ccccc2)cc1)C(=O)N1CCN(CCCCN2c3ccccc3Sc3cc(N=[N+]=[N-])ccc32)CC1` (centres undefined), the GI50 in the assay with T47D, with NCI/ADR-RES, in the assay with SF-539, with UO-31, in the assay on NCI-H522 and in the assay on CCRF-CEM was > 100 µM (inactive) each time. The GI50 in the assay with EKVX was > 100 µM (inactive); in the assay with BT-549, > 100 µM (inactive); in the assay on HCT-15 it was over 100 µM; in the assay on PC-3 it was > 100 µM (inactive); in the assay with MDA-MB-231 it was > 100 µM (inactive); in the assay on MDA-N, > 100 µM (inactive). Also, the GI50 in the assay on A549, with 786-0, in the assay on NCI-H460, in the assay with MCF7, with COLO 205 and with SK-MEL-28 was > 100 µM (inactive) in each case.

In the case of `N#Cc1sc2nc3ccccc3n2c1N`, the GI50 in the assay with T47D was 89.7 µM (inactive); with NCI/ADR-RES it was > 100 µM (inactive); in the assay on SF-539, 55.3 µM (inactive); with UO-31, 36.6 µM (inactive); with NCI-H522 it was > 100 µM (inactive); in the assay with CCRF-CEM, 29.3 µM (inactive). Also, the GI50 was 85.1 µM (inactive) with EKVX; 49.2 µM (inactive) with BT-549; 65.5 µM in the assay with HCT-15; 73.6 µM (inactive) in the assay with PC-3; 76.4 µM (inactive) in the assay with MDA-MB-231; > 100 µM (inactive) in the assay on MDA-N. In addition, the GI50 in the assay with A549 was 47.4 µM (inactive); with 786-0 it was > 100 µM (inactive); with MCF7, 84.5 µM (inactive); in the assay on COLO 205, 78.7 µM (inactive); in the assay with SK-MEL-28, > 100 µM (inactive).

For `COC(=O)[C@]1(c2cc3ccccc3[nH]2)CC2CN(C(=O)OCc3ccccc3)C1C=C2OC` (some centres undefined), the GI50 in the assay on T47D was 35.8 µM (inactive); with NCI/ADR-RES it was 38.3 µM (inactive); in the assay with SF-539 it was 25.4 µM (inactive); in the assay with NCI-H522, 27.2 µM (inactive); with CCRF-CEM it was 24.8 µM (inactive); in the assay on EKVX it was 36.5 µM (inactive). Further, the GI50 is 31 µM (inactive) with BT-549; 34.8 µM in the assay on HCT-15; 26.7 µM (inactive) in the assay on PC-3; 19.9 µM (inactive) in the assay on MDA-MB-231; 32.3 µM (inactive) in the assay with MDA-N; 31.5 µM (inactive) with A549. Moreover, the GI50 in the assay with 786-0 was 36.7 µM (inactive); in the assay with NCI-H460 it was 33.1 µM (inactive); in the assay with MCF7 it was 25.6 µM (inactive); in the assay with COLO 205 it was 19 µM (inactive); with SK-MEL-28 it was 38 µM (inactive).

Turning to `Cc1c2cccc-2c(N(C)C)cc2c1[nH]c1ccccc12`, the GI50 is 1.86 µM (inactive) in the assay on T47D; 1.58 µM (inactive) with SR; 3.22 µM (inactive) in the assay with NCI/ADR-RES; 2.11 µM (inactive) with SF-539; 2.53 µM (inactive) with UO-31; 3.83 µM (inactive) with CCRF-CEM. Besides, the GI50 was 1.96 µM (inactive) with EKVX; 2.6 µM (inactive) in the assay on BT-549; 3.12 µM in the assay with HCT-15; 1.42 µM (inactive) in the assay with PC-3; 10.1 µM (inactive) with MDA-MB-231; 6.56 µM (inactive) with MDA-N. In addition, the GI50 with A549 is 3.85 µM (inactive); in the assay on 786-0, 2.97 µM (inactive); in the assay on NCI-H460, 9.16 µM (inactive); in the assay with MCF7, 5.31 µM (inactive); in the assay with COLO 205 it was 1.65 µM (inactive); with SK-MEL-28, 2.02 µM (inactive).

For the compound `COc1ccc(-c2nnc3nc4ccccc4n3c2O)cc1`, the GI50 in the assay with T47D, in the assay with NCI/ADR-RES, in the assay on SF-539, in the assay on UO-31, in the assay with NCI-H522 and with CCRF-CEM was > 100 µM (inactive) throughout. Also, the GI50 with EKVX was > 100 µM (inactive); in the assay on BT-549, > 100 µM (inactive); in the assay on HCT-15, over 100 µM; in the assay with PC-3 it was > 100 µM (inactive); in the assay with MDA-MB-231, 31 µM (inactive); in the assay on MDA-N, > 100 µM (inactive). Further, the GI50 in the assay with A549, in the assay on 786-0, in the assay on NCI-H460, in the assay with MCF7, in the assay with COLO 205 and in the assay on SK-MEL-28 was > 100 µM (inactive) each time.

For `Cn1ccc2c(c1=O)C(=O)OC2(C)C` [CERPEGIN], the GI50 was > 100 µM (inactive) with T47D; > 100 µM (inactive) in the assay with SR; > 100 µM (inactive) in the assay on NCI/ADR-RES; > 100 µM (inactive) with SF-539; 59.2 µM (inactive) with UO-31; > 100 µM (inactive) in the assay on CCRF-CEM. In addition, the GI50 in the assay with EKVX is > 100 µM (inactive); in the assay with BT-549 it was > 100 µM (inactive); in the assay with HCT-15 it was over 100 µM; in the assay with PC-3 it was > 100 µM (inactive); with MDA-MB-231 it was > 100 µM (inactive); in the assay on MDA-N, > 100 µM (inactive). Further, the GI50 in the assay on A549, in the assay on 786-0, with NCI-H460, with MCF7, in the assay on COLO 205 and in the assay with SK-MEL-28 was > 100 µM (inactive) in each case.
